How the values were obtained:
BL6 cells = assay: tritiated thymidine incorporation, cell growth; type: cell-based, mouse; settings: BL6 cells in vitro
Protocol: An in vitro assay relying on tritiated thymidine incorporation can be used to ascertain the effect of various compounds on cell proliferation. Briefly, tumor cells are seeded in flat bottom 96 well plates (Corning, N.Y.) at a concentration of 2×10^4 cells per well. The cells were cultured for 2 days in DMEM containing various concentrations of sphingoid which was added as a PBS solution. The medium then was supplemented with tritiated thymidine at a concentration of 0.5 μCi per well. Following a six hour incubation the cells were collected using the PHD Cell Harvester (Cambridge Technology, Cambridge, Mass.) and amounts of incorporated radioactivity were determined after adding a suitable cell lysing agent and scintillation cocktail, such as ScintiVerse BD (Fisher Scientific, Fairlawn, Calif.) which performs both functions.
Certain cancer cells show a higher metastatic potential and invasive capability than others. For example, in the mouse, the BL6 and F10 melanoma cell lines are highly metastatic and invasive. On the other hand, the F1 variant is much less metastatic and invasive (I. R. Hart et al., Amer. J. Pathol., 97, 587-592 (1979); G. Poote et al., Cancer Res. 42, 2770-2778 (1982); F1 and F10 clones from ATCC CRL 6323, and CRL 6475, respectively). BL6 and F1 cells were tested in vitro as described above. […]

B16BL6 melanoma cells = assay: metastasis of B16BL6 melanoma cells (lung metastatic deposits in mice); type: in vivo, mouse; settings: BL6 cells injected into mice; irrespective of route or timing
Protocol: BL6 cells were injected into mice and metastatic deposits in the lung were assessed after various treatments including route and timing, of administration.

neutrophils [1] = assay: neutrophil trans-endothelial migration through HUVEC monolayer; type: cell-based, human; settings: IL-1β-activated EC's; pre-treatment of neutrophils
Protocol: A characteristic of neutrophils is the ability to adhere to activated EC's and to migrate through the EC monolayer into the vascular or extravascular matrix. The effect of TMS on neutrophil interactions with EC's and their subsequent trans-endothelial migration thereof can be monitored in vitro using human umbilical endothelial cells (HUVEC's) (Luscinskas et al., J. Imm., 146, 1617, 1991). Neutrophils are added to a HUVEC monolayer and neutrophil-HUVEC interactions are assessed microscopically following fixation, embedding and staining of monolayer sections.
Under physiological conditions, neutrophils are able to migrate into the collagenous matrix through the EC monolayer. When EC's are activated with IL-1β in M199 medium for 4 hours, neutrophils migrate into the collagenous matrix within 90 minutes.

neutrophils [2] = assay: fMLP-enhanced 32P incorporation into PI, PIP and PIP2 in neutrophils; type: cell-based, human; settings: fMLP 1 μM; pre-incubation of neutrophils
Protocol: Metabolic incorporation of [^32 P]sodium phosphate (4 mCi) into phosphatidylinositol (PI), phosphatidylinositol-4-phosphate (PIP) and phosphatidylinositol-4,5-bis-diphosphate (PIP2) is enhanced by chemotactic peptide fMLP (1 μM).

[3] = test system: 40 kD (or 47 kD) platelet protein; assay: phosphorylation of platelet protein on thrombin stimulation; type: cell-based
Source text: On thrombin stimulation, a 40 kD (or 47 kD) platelet protein is phosphorylated. […] While not wanting to be bound by their statement, the inventors believe that absence of phosphorylated 40 kD (or 47 kD) protein prevents platelet aggregation.

neutrophils [4] = assay: superoxide production in neutrophils (reduction of cytochrome C); type: cell-based, human
Protocol: Human neutrophils were obtained from normal male adults. Heparinized peripheral blood was mixed gently with an equal amount of 1% dextran solution in PBS in a 60 ml injection syringe. The mixture was allowed to sit vertically for 60 to 90 minutes at 37° C. The upper phase, which is rich in white blood cells, was mounted gently on the same volume of Ficoll-Paque (Pharmacia LKB, Uppsala, Sweden) in Falcon 2095 plastic test tubes (Becton Dickinson Labware, Lincoln Park, N.J.). Centrifugation at 450g for 30 min at 4° C. brought the neutrophils to the bottom of the tubes. The upper phase and interface, which contains lymphocytes, were removed carefully by aspiration.
Contaminating erythrocytes were removed from the cell pellet by hypotonic lysis by resuspending the cell pellet in ice-cold distilled water for 30 sec then adding an equal volume of ice-cold 1.8% NaCl solution. After centrifugation at 80g for 10 min, the cells were resuspended with a suitable buffer or media.
The final preparation consisted of more than 98% neutrophils, as determined by Wright-Giemsa staining. The suspension was stored at 4° C. and used within 3 hr.

## CCCCCCCCCCCCC/C=C/C(O)C(CO)[N+](C)(C)C (stereo not drawn) [TMS, N,N,N-trimethylsphingosine]
BL6 cells
  inhibiting cell growth: more effective than DMS and sphingosine
B16BL6 melanoma cells
  lung colonization and tumor development: effective in suppressing
Neutrophils [1]
  Neutrophil migration: inhibited strongly
Neutrophils [2]
  fMLP-dependent enhancement of 32P incorporation into PI, PIP and PIP2: suppressed strongly
[3]
  phosphorylation of the 40 kD (or 47 kD) platelet protein: inhibits phosphorylation
Neutrophils [4]
  Superoxide production in neutrophils: inhibited by TMS in a dose-dependent manner
